Measurements as given in patent publication US11192849B2, “Compounds, compositions, and methods for modulating ferroptosis and treating excitotoxic disorders” (THE TRUSTEES OF COLUMBIA UNIVERSITY IN THE CITY OF NEW YORK, priority 2013, dated 2021).

Assays:
HT-1080 cells [1] = test: Effect of Fer-1 on the lethality of various compounds in HT-1080 cells; assay type: cell-based, human; details: resynthesized Fer-1 (0.5 μM)
Procedure: The comparative analysis of the lethal effects of various molecules was conducted as above for the inhibitors experiment with the following modifications. All lethal molecules were tested in a ten point, two-fold dilution series. Inhibitors were made in media at 1× final concentration. The growth media was removed from the plates, and 36 μL media+inhibitor (or DMSO) was added back to the plate+4 μL from the 10× lethal stock plate. Cell viability and modulatory effects (Me) were computed as above, to obtain the maximum deviation from BExp produced by each modulator across the different lethal small molecule concentrations.

HT-1080 cells [2] = test: Acridine orange relocalization (lysosomal membrane permeabilization) in HT-1080 cells; assay type: cell-based, human; details: acridine orange re-localization
Procedure: 200,000 HT-1080 cells were seeded into 6-well dishes (Corning). The next day, cells were incubated with 25 ng/mL of AO for 15 minutes, then medium was removed and cells were incubated in growth medium for 15 minutes. […] Relocalization of AO from lysosomes (discrete red puncta) to the cytosol (diffuse green color) was determined using an EVOS fl digital inverted fluorescent microscope (Advanced Microscopy Group) equipped with GFP (ex/em 470/525) and RFP (ex/em 531/593) light cubes.

SMILES: CCOC(=O)c1ccc(NC2CCCCC2)c(N)c1 [SRS8-28 (Fer-1), ethyl 3-amino-4-(cyclohexylamino)benzoate]
- specificity of death inhibition among lethal compounds (HT-1080 cells [1]): specifically inhibited RSL-induced death, but not cell death induced by other oxidative lethal compounds and apoptosis-inducing agents
- lysosomal membrane destruction in response to H2O2 (HT-1080 cells [2]): did not prevent
